Measured values published in ChEMBL document CHEMBL1201862, “PubChem BioAssay data set” (2004).
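Grown in 96-well plates, cells were treated for 48 hours with each compound at five concentrations. Insufficient inhibition: endpoint recorded as highest concentration tested. GI50 is the concentration that inhibits growth by half.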 The source made the active and inactive calls. Rule as the data show it: active = GI50 up to about 1.1 µM and inactive = higher.

Legend:
Test in all cases: NCI tumour cell line growth inhibition, 48 h
OVCAR-8 = system: OVCAR-8
SW-620 = system: SW-620
SN12C = system: SN12C
Hs-578T = system: Hs-578T
HT-29 = system: HT-29
MOLT-4 = system: MOLT-4
NCI-H226 = system: NCI-H226
SF-295 = system: SF-295
SK-MEL-2 = system: SK-MEL-2
M14 = system: M14
HCC 2998 = system: HCC 2998
Malme-3M = system: Malme-3M
COLO 205 = system: COLO 205
NCI-H460 = system: NCI-H460
K562 = system: K562
CCRF-CEM = system: CCRF-CEM
UACC-62 = system: UACC-62
PC-3 = system: PC-3
SK-OV-3 = system: SK-OV-3
A498 = system: A498

Structure (SMILES)	GI50 (OVCAR-8)	GI50 (SW-620)	GI50 (SN12C)	GI50 (Hs-578T)	GI50 (HT-29)	GI50 (MOLT-4)	GI50 (NCI-H226)	GI50 (SF-295)	GI50 (SK-MEL-2)	GI50 (M14)	GI50 (HCC 2998)	GI50 (Malme-3M)	GI50 (COLO 205)	GI50 (NCI-H460)	GI50 (K562)	GI50 (CCRF-CEM)	GI50 (UACC-62)	GI50 (PC-3)	GI50 (SK-OV-3)	GI50 (A498)
COc1cc2oc(=O)ccc2cc1C1OC(=O)C2OC21C (centres undefined)	> 100 µM (inactive)	> 100 µM (inactive)	> 100 µM (inactive)	54.6 µM (inactive)	> 100 µM (inactive)	> 100 µM (inactive)	> 100 µM (inactive)	> 100 µM (inactive)	> 100 µM (inactive)	> 100 µM (inactive)	> 100 µM (inactive)	> 100 µM (inactive)	> 100 µM (inactive)	> 100 µM (inactive)	> 100 µM (inactive)	> 100 µM (inactive)	> 100 µM (inactive)	> 100 µM (inactive)	> 100 µM (inactive)	
COc1cc2c3c(c1)c1cc(OC)c(OC)cc1c[n+]3CC2	4.32 µM (inactive)	> 50 µM (inactive)	1.53 µM (inactive)	3.1 µM (inactive)	23 µM (inactive)	2 µM (inactive)	14.2 µM (inactive)	15.5 µM (inactive)	31.8 µM (inactive)	> 50 µM (inactive)		0.991 µM (active)	7.29 µM (inactive)	4.32 µM (inactive)	10 µM (inactive)	> 50 µM (inactive)	19.1 µM (inactive)	25.8 µM (inactive)	> 50 µM (inactive)	> 50 µM (inactive)
Nc1cccc(Nc2nc3ccccc3nc2NS(=O)(=O)c2ccccc2)c1	30 µM (inactive)	18.4 µM (inactive)	26 µM (inactive)	41.7 µM (inactive)	27.1 µM (inactive)	15.9 µM (inactive)	38 µM (inactive)	27.5 µM (inactive)	15.7 µM (inactive)	26.2 µM (inactive)	15.9 µM (inactive)	28.6 µM (inactive)	15.8 µM (inactive)	22.1 µM (inactive)	21.1 µM (inactive)	15.2 µM (inactive)	20.7 µM (inactive)	19.5 µM (inactive)	30.4 µM (inactive)	
COc1ccc(C(=O)N/N=C2\C(=O)c3c(C)cc(C)cc3CC2(C)C)cc1	20.9 µM (inactive)	20.8 µM (inactive)	18.4 µM (inactive)	16.3 µM (inactive)	18.4 µM (inactive)	11.5 µM (inactive)	22.3 µM (inactive)	19.6 µM (inactive)	18.9 µM (inactive)	19.8 µM (inactive)		14.9 µM (inactive)	21.8 µM (inactive)	25.6 µM (inactive)	16.7 µM (inactive)	24.3 µM (inactive)	15.1 µM (inactive)	22.2 µM (inactive)	29.2 µM (inactive)	19.9 µM (inactive)
Cc1ccc(/C=N/Nc2ccc3ccccc3n2)s1	26.7 µM (inactive)	23.2 µM (inactive)	13 µM (inactive)	25.2 µM (inactive)	7.46 µM (inactive)	9.55 µM (inactive)	80.7 µM (inactive)	16.4 µM (inactive)	> 100 µM (inactive)	16.9 µM (inactive)	15.3 µM (inactive)	14.9 µM (inactive)	12.9 µM (inactive)		16.9 µM (inactive)	> 100 µM (inactive)	34.8 µM (inactive)	13.2 µM (inactive)	30.2 µM (inactive)	
COc1cccc2c1C(=O)c1c(O)c3c(c(O)c1C2=O)C[C@H](O)C[C@@H]3OC1CC(N)C(O)C(C)O1 (some centres undefined)	1.05 µM (active)			0.802 µM (active)	2.09 µM (inactive)	< 0.01 µM (active)	1.08 µM (active)	1.44 µM (inactive)	2.02 µM (inactive)			0.843 µM (active)	0.508 µM (active)	< 0.01 µM (active)	1.79 µM (inactive)	0.259 µM (active)	0.255 µM (active)	2.09 µM (inactive)	2.13 µM (inactive)	< 0.01 µM (active)
O=C(NCCNCCNC(=O)C(F)(F)F)C(F)(F)F	> 100 µM (inactive)	> 100 µM (inactive)	> 100 µM (inactive)	> 100 µM (inactive)	> 100 µM (inactive)	> 100 µM (inactive)	> 100 µM (inactive)	> 100 µM (inactive)	> 100 µM (inactive)	> 100 µM (inactive)	> 100 µM (inactive)	> 100 µM (inactive)	> 100 µM (inactive)		> 100 µM (inactive)	> 100 µM (inactive)	> 100 µM (inactive)	> 100 µM (inactive)	> 100 µM (inactive)	
CC1=CC(C)(C)[C@H]2O[C@@]3(O)C[C@]4(C)[C@H]5C[C@@](C(C)C)(O[C@H]4c4ccoc4)O[C@H]4[C@]5(C3)O[C@@]1(O)[C@]24O	> 100 µM (inactive)	> 100 µM (inactive)	> 100 µM (inactive)	18.7 µM (inactive)	> 100 µM (inactive)	> 100 µM (inactive)	> 100 µM (inactive)	> 100 µM (inactive)	> 100 µM (inactive)	> 100 µM (inactive)	> 100 µM (inactive)	40.9 µM (inactive)	> 100 µM (inactive)		> 100 µM (inactive)	> 100 µM (inactive)	> 100 µM (inactive)	> 100 µM (inactive)	> 100 µM (inactive)	
CC(C)(C)C1CC[C@H](O)[C@H]([C@H](O)CC2CC(=O)N(c3ccccc3)C(=O)C2)C1 (some centres undefined)	> 100 µM (inactive)	> 100 µM (inactive)	> 100 µM (inactive)	> 100 µM (inactive)	> 100 µM (inactive)	99.3 µM (inactive)	> 100 µM (inactive)	63.7 µM (inactive)		> 100 µM (inactive)	> 100 µM (inactive)	> 100 µM (inactive)		95.9 µM (inactive)	> 100 µM (inactive)	> 100 µM (inactive)	31.5 µM (inactive)	> 100 µM (inactive)		> 100 µM (inactive)
COc1ccc(S(=O)(=O)Nc2ccc(-c3csc(N4C(=O)/C(=C/C=C\c5ccccc5)N=C4c4ccccc4)n3)cc2)cc1Cl	23.2 µM (inactive)	43 µM (inactive)	33.2 µM (inactive)	29.9 µM (inactive)	56.8 µM (inactive)	22.8 µM (inactive)	34 µM (inactive)	38.5 µM (inactive)	22.6 µM (inactive)	27.6 µM (inactive)		20.2 µM (inactive)	39.4 µM (inactive)	32.1 µM (inactive)	35.2 µM (inactive)	20.1 µM (inactive)	19.4 µM (inactive)	31.3 µM (inactive)	65.3 µM (inactive)	22.5 µM (inactive)
CC(=O)C(C(=O)C(C)(C)C)C(=O)C(C)(C)C	> 100 µM (inactive)	> 100 µM (inactive)	> 100 µM (inactive)	> 100 µM (inactive)		> 100 µM (inactive)		> 100 µM (inactive)	> 100 µM (inactive)	> 100 µM (inactive)	> 100 µM (inactive)	> 100 µM (inactive)	> 100 µM (inactive)	> 100 µM (inactive)	> 100 µM (inactive)	> 100 µM (inactive)	> 100 µM (inactive)	> 100 µM (inactive)	> 100 µM (inactive)	
